Consider one compound from PubChem BioAssay (NCI).

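These data come from cells grown in 96-well plates and exposed to compound for 48 hours at five concentrations. GI50 = concentration required for 50% inhibition of growth. TGI marks complete inhibition of growth.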 Where only a bound is given, the exact number is not on record here.

Test systems include 786-0 renal; MDA-MB-231 breast; RPMI-8226 leukemia; SK-MEL-2 melanoma; A498 renal; HT29 colon; NCI-H460 lung; SK-MEL-5 melanoma; NCI-H522 lung; UACC-62 melanoma.
Test in all cases: inhibition of tumour cell growth, NCI panel, 48 h

Regarding `COc1cc2c(/C=C3\C(=O)Nc4ccccc43)c[nH]c2cc1C`, the GI50 in the test on 786-0 renal was < 21.8 nM; in the test on MDA-MB-231 breast, 289 nM; in the test on RPMI-8226 leukemia it was 39.3 nM; in the test with SK-MEL-2 melanoma, 17700 nM; with A498 renal, < 24.3 nM; with HT29 colon, 152 nM. For the same compound, the GI50 in the test on NCI-H460 lung was 76.1 nM; in the test on SK-MEL-5 melanoma, < 15 nM; in the test on NCI-H522 lung, 833 nM; with UACC-62 melanoma, 77.5 nM. Further, the TGI is 12600 nM with 786-0 renal; 2690 nM in the test with MDA-MB-231 breast; 16200 nM with RPMI-8226 leukemia; > 63400 nM in the test with SK-MEL-2 melanoma; 16500 nM in the test with A498 renal; > 100000 nM with HT29 colon. Moreover, the TGI in the test on NCI-H460 lung was > 100000 nM; with SK-MEL-5 melanoma, 1890 nM; in the test on NCI-H522 lung, > 35300 nM; in the test with UACC-62 melanoma it was 7430 nM.
